Literature values, collected in patent publication US20220061318A1, “ANTIMICROBIAL PREVENTIVE NETTING” (University of Washington, priority 2020, published 2022).

Settings: photosensitizer, singlet oxygen generation; riboflavin value depends on the test conditions

Row | Structure (SMILES) | quantum yield
1 | CN(C)c1ccc2nc3ccc(=[N+](C)C)cc-3sc2c1 [Methylene blue, methylene blue] | 0.52
2 | O=C1OC2(c3ccccc31)c1cc(I)c(O)c(I)c1Oc1c2cc(I)c(O)c1I [erythrosine] | around 0.6
